This is an account of results in patent US20250346574A1, “PYRIDINYL SUBSTITUTED OXOISOINDOLINE COMPOUNDS FOR THE TREATMENT OF CANCER” (Bristol-Myers Squibb Company, priority 2021, published 2025).

Where only a bound is given, the exact number is not on record here.

Sequence of Helios (Q9UKS7 whole entry): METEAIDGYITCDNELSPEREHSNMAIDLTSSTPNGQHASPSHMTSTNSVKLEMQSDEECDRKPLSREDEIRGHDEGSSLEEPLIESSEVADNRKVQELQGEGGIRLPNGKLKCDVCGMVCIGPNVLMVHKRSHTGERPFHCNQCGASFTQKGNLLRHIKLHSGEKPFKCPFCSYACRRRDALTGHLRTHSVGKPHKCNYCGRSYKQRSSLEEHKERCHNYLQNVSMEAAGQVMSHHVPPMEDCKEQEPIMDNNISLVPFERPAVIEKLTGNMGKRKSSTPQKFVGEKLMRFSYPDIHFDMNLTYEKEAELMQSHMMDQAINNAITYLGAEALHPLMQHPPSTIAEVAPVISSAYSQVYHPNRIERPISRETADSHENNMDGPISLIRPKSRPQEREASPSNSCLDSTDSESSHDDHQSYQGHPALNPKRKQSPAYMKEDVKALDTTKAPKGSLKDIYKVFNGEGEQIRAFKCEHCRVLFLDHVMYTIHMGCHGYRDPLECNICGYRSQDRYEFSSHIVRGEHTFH
Sequence of Helios (Q96SW2 whole entry): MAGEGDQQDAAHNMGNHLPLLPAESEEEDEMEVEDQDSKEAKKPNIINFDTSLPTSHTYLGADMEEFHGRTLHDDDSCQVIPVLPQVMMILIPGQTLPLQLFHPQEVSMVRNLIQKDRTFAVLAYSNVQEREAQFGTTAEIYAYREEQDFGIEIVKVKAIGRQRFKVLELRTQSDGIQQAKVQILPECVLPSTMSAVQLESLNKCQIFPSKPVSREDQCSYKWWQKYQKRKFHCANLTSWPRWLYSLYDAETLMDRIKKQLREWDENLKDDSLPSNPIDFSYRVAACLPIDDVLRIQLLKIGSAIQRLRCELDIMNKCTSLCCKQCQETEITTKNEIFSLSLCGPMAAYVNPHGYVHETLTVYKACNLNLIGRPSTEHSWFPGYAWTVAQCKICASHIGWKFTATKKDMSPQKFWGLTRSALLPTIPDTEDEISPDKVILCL
Sequence of Helios (Q16531 whole entry partner): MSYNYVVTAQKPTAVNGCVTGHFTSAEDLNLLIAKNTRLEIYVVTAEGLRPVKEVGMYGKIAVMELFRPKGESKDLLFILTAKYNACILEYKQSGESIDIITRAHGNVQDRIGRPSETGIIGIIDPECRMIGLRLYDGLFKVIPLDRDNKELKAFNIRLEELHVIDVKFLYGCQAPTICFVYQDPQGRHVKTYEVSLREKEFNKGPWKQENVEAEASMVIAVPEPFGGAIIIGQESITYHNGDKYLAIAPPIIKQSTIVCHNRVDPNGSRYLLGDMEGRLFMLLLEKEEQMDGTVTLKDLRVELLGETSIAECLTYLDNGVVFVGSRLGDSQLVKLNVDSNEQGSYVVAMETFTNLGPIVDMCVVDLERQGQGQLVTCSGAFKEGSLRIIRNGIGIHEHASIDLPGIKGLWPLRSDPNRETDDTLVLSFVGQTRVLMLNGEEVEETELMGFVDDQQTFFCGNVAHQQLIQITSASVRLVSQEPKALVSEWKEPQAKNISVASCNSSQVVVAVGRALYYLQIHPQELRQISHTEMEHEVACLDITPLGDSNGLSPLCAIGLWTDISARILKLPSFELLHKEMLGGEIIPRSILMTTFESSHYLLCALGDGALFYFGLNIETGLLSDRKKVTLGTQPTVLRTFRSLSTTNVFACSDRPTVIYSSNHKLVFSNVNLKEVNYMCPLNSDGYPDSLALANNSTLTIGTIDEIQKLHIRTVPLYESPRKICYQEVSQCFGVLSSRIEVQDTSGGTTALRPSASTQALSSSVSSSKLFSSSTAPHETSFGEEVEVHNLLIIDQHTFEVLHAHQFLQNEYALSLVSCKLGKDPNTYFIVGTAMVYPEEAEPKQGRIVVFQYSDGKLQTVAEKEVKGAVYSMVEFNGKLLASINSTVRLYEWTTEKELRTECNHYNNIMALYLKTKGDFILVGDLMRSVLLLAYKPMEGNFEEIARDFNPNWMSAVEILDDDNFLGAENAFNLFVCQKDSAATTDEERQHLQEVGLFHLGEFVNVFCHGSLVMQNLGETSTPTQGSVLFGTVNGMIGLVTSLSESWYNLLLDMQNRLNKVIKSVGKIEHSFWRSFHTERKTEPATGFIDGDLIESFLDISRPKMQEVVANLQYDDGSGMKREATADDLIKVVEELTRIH

This assay concerns the target Helios (Homo sapiens, UniProt Q96SW2+Q9UKS7). Put plainly: Helios Human T Regulatory Cells Degradation Assay. It counts as cell-based. More on the design: fluorescently labelled antibodies against Helios in 1× Permeabilization buffer; endogenous in cells; host or cells: cryopreserved human T regulatory cells. The settings on record: cryopreserved human T regulatory cells, incubated 20 hours, Helios-APC antibody staining, flow cytometry; read-out: hTreg Helios DC50. As for the experimental part:
Cryopreserved human T regulatory cells were thawed in RPMI+10% FBS+20 ng/mL IL-2. After being spun at 1200 rpm for 5 mins, the cells were resuspended in RPMI+10% FBS+20 ng/mL and rested at 37° C. with 5% CO2 for 3 hours. […] Cell cultures were incubated for 20 hours at 37° C. and 5% CO2. In order to facilitate analysis, cell cultures were spun down at 1200 rpm for 5 minutes and the supernatant was discarded using an EL406 plate washer. After washing three times with 70 μL PBS, cell pellets were resuspended in 50 μL of near IR viability staining solution (Life Technologies, Cat #L34975) and incubated for 30 minutes on ice protected from light. Cells were washed three times with 70 μL PBS+0.5% BSA using an EL406 plate washer. […] Subsequently, 30 μL of 1× Permeabilization buffer was added prior to centrifuging the cells and discarding the supernatant. Stained cells were resuspended in 30 μL of flow cytometry staining buffer (PBS+0.5% BSA) and analyzed using an Intellicyt Ique Plus flow cytometer.
On to `CC1CC(O)CCN1Cc1ccnc(-c2ccc3c(c2)CN(C2CCC(=O)NC2=O)C3=O)c1F` (single isomer, unassigned) [Example 212, 3-(5-(3-fluoro-4-((4-hydroxy-2-methylpiperidin-1-yl)methyl)pyridin-2-yl)-1-oxoisoindolin-2-yl)piperidine-2,6-dione], for which the DC50 (in general, the concentration at which degradation of the target reaches its halfway point) was 653 nM.
Under `CC(C)(C)OC(=O)[C@@H]1C[C@@H](OC(C)(C)C)CN1Cc1ccnc(-c2ccc3c(c2)CN(C2CCC(=O)NC2=O)C3=O)c1F` (single isomer, unassigned) [Example 214] stands 3.5 nM; under `CC1(O)CC2CN(Cc3ccnc(-c4ccc5c(c4)CN(C4CCC(=O)NC4=O)C5=O)c3)CC2C1` (stereo in doubt) [Example 147, (3S)-3-(5-(4-((5-hydroxy-5-methylhexahydrocyclopenta[c]pyrrol-2(1H)-yl)methyl)pyridin-2-yl)-1-oxoisoindolin-2-yl)piperidine-2,6-dione], 11.5 nM; under `O=C1CCC(N2Cc3cc(-c4nccc(CN5CC6(CCC6)C5)c4F)ccc3C2=O)C(=O)N1` (stereo not shown) [Example 88, 3-(5-(4-((2-azaspiro[3.3]heptan-2-yl)methyl)-3-fluoropyridin-2-yl)-1-oxoisoindolin-2-yl)piperidine-2,6-dione], 3.4 nM.
Under `CC(C)(O)C1CN(Cc2ccnc(-c3ccc4c(c3)CN(C3CCC(=O)NC3=O)C4=O)c2F)C1` (stereo not shown) [Example 89, 3-(5-(3-fluoro-4-((3-(2-hydroxypropan-2-yl)azetidin-1-yl)methyl)pyridin-2-yl)-1-oxoisoindolin-2-yl)piperidine-2,6-dione] stands 18.4 nM; under `C[C@H]1[C@H](O)CN1Cc1ccnc(-c2ccc3c(c2)CN(C2CCC(=O)NC2=O)C3=O)c1F` (stereo partly drawn) [Example 90, 3-(5-(3-fluoro-4-(((2S,3R)-3-hydroxy-2-methylazetidin-1-yl)methyl)pyridin-2-yl)-1-oxoisoindolin-2-yl)piperidine-2,6-dione], 454 nM.
For `O=C1CCC(N2Cc3cc(-c4nccc(CN5CCC(O)(c6ccccc6)CC5)c4F)ccc3C2=O)C(=O)N1` (stereo not shown) [Example 91, 3-(5-(3-fluoro-4-((4-hydroxy-4-phenylpiperidin-1-yl)methyl)pyridin-2-yl)-1-oxoisoindolin-2-yl)piperidine-2,6-dione], the DC50 is at least 10000 nM.
As for `CC(C)(O)C1CCN(Cc2cc(-c3ccc4c(c3)CN(C3CCC(=O)NC3=O)C4=O)ncc2F)CC1` (stereo not shown) [Example 92, 3-(5-(5-fluoro-4-((4-(2-hydroxypropan-2-yl)piperidin-1-yl)methyl)pyridin-2-yl)-1-oxoisoindolin-2-yl)piperidine-2,6-dione], the DC50 came out at 1.2 nM.
The same measure for `O=C1CCC(N2Cc3cc(-c4cc(CN5CC6(CCC6)C5)c(F)cn4)ccc3C2=O)C(=O)N1` (stereo not shown) [Example 93, 3-(5-(4-((2-azaspiro[3.3]heptan-2-yl)methyl)-5-fluoropyridin-2-yl)-1-oxoisoindolin-2-yl) piperidine-2,6-dione]: 1.7 nM.
The same measure for `CC(C)(O)[C@H]1CCCN1Cc1ccnc(-c2ccc3c(c2)CN(C2CCC(=O)NC2=O)C3=O)c1Cl` (stereo partly drawn) [Example 96, 3-(5-(3-chloro-4-(((R)-2-(2-hydroxypropan-2-yl)pyrrolidin-1-yl)methyl)pyridin-2-yl)-1-oxoisoindolin-2-yl)piperidine-2,6-dione]: 6.6 nM.
Under `CC(C)(O)C1CN(Cc2ccnc(-c3ccc4c(c3)CN(C3CCC(=O)NC3=O)C4=O)c2Cl)C1` (stereo not shown) [Example 97, 3-(5-(3-chloro-4-((3-(2-hydroxypropan-2-yl)azetidin-1-yl)methyl)pyridin-2-yl)-1-oxoisoindolin-2-yl) piperidine-2,6-dione] stands 17.1 nM; under `COCC1CCCN(Cc2ccnc(-c3ccc4c(c3)CN(C3CCC(=O)NC3=O)C4=O)c2)C1` (stereo not shown) [Example 99, 3-(5-(4-((3-(methoxymethyl)piperidin-1-yl)methyl)pyridin-2-yl)-1-oxoisoindolin-2-yl)piperidine-2,6-dione], 2 nM; under `O=C1CCC(N2Cc3cc(-c4cc(CN5CCC6(CC5)COC6)ccn4)ccc3C2=O)C(=O)N1` (stereo not shown) [Example 100, 3-(5-(4-((2-oxa-7-azaspiro[3.5]nonan-7-yl)methyl)pyridin-2-yl)-1-oxoisoindolin-2-yl)piperidine-2,6-dione], 3.2 nM.
Regarding `O=C1CCC(N2Cc3cc(-c4cc(CN5C[C@@H]6C(CO)[C@@H]6C5)ccn4)ccc3C2=O)C(=O)N1` (stereo partly drawn) [Example 101, 3-(5-(4-(((1R,5S,6r)-6-(hydroxymethyl)-3-azabicyclo[3.1.0]hexan-3-yl)methyl)pyridin-2-yl)-1-oxoisoindolin-2-yl)piperidine-2,6-dione], the DC50 was determined as 4.2 nM.
The same measure for `O=C1CCC(N2Cc3cc(-c4cc(CN5CC[C@@H](CO)C5)ccn4)ccc3C2=O)C(=O)N1` (stereo partly drawn) [Example 102, 3-(5-(4-(((R)-3-(hydroxymethyl)pyrrolidin-1-yl)methyl)pyridin-2-yl)-1-oxoisoindolin-2-yl)piperidine-2,6-dione]: 8.1 nM.
The same measure for `O=C1CCC(N2Cc3cc(-c4cc(CN5Cc6cnc(Cl)cc6C5)ccn4)ccc3C2=O)C(=O)N1` (stereo not shown) [Example 103, 3-(5-(4-((6-chloro-1,3-dihydro-2H-pyrrolo[3,4-c]pyridin-2-yl)methyl)pyridin-2-yl)-1-oxoisoindolin-2-yl)piperidine-2,6-dione]: 4110 nM; for `CC(C)(O)[C@H]1CCN(Cc2ccnc(-c3ccc4c(c3)CN(C3CCC(=O)NC3=O)C4=O)c2)C1` (stereo partly drawn) [Example 104, 3-(5-(4-(((S)-3-(2-hydroxypropan-2-yl)pyrrolidin-1-yl)methyl)pyridin-2-yl)-1-oxoisoindolin-2-yl)piperidine-2,6-dione]: 4.2 nM.
The same measure for `O=C1CCC(N2Cc3cc(-c4cc(CN5CC[C@H](CO)C5)ccn4)ccc3C2=O)C(=O)N1` (stereo partly drawn) [Example 105, 3-(5-(4-(((S)-3-(hydroxymethyl)pyrrolidin-1-yl)methyl)pyridin-2-yl)-1-oxoisoindolin-2-yl) piperidine-2,6-dione]: 0.4 nM.
For the compound `CC(C)(O)[C@@H]1CCN(Cc2ccnc(-c3ccc4c(c3)CN(C3CCC(=O)NC3=O)C4=O)c2)C1` (stereo partly drawn) [Example 106, 3-(5-(4-(((R)-3-(2-hydroxypropan-2-yl)pyrrolidin-1-yl)methyl)pyridin-2-yl)-1-oxoisoindolin-2-yl)piperidine-2,6-dione], the DC50 came out at 6 nM.
The same measure for `CC(O)C1CCN(Cc2ccnc(-c3ccc4c(c3)CN(C3CCC(=O)NC3=O)C4=O)c2)C1` (stereo not shown) [Example 107, 3-(5-(4-((3-(1-hydroxyethyl)pyrrolidin-1-yl)methyl)pyridin-2-yl)-1-oxoisoindolin-2-yl)piperidine-2,6-dione]: 5.8 nM; for `CC(O)C1CCN(Cc2ccnc(-c3ccc4c(c3)CN(C3CCC(=O)NC3=O)C4=O)c2)CC1` (stereo not shown) [Example 108, 3-(5-(4-((4-(1-hydroxyethyl)piperidin-1-yl)methyl)pyridin-2-yl)-1-oxoisoindolin-2-yl)piperidine-2,6-dione]: 1.4 nM.
Under `O=C1CCC(N2Cc3cc(-c4nccc(CN5CC[C@H](CO)C5)c4F)ccc3C2=O)C(=O)N1` (stereo partly drawn) [Example 109, 3-(5-(3-fluoro-4-(((S)-3-(hydroxymethyl)pyrrolidin-1-yl)methyl)pyridin-2-yl)-1-oxoisoindolin-2-yl)piperidine-2,6-dione] stands 21.3 nM.
Under `CC(C)(O)[C@H]1CCN(Cc2ccnc(-c3ccc4c(c3)CN(C3CCC(=O)NC3=O)C4=O)c2F)C1` (stereo partly drawn) [Example 110, 3-(5-(3-fluoro-4-(((S)-3-(2-hydroxypropan-2-yl)pyrrolidin-1-yl)methyl)pyridin-2-yl)-1-oxoisoindolin-2-yl)piperidine-2,6-dione] stands 9.8 nM; under `CC(C)(O)[C@@H]1CCN(Cc2ccnc(-c3ccc4c(c3)CN(C3CCC(=O)NC3=O)C4=O)c2F)C1` (stereo partly drawn) [Example 111, 3-(5-(3-fluoro-4-(((R)-3-(2-hydroxypropan-2-yl)pyrrolidin-1-yl)methyl)pyridin-2-yl)-1-oxoisoindolin-2-yl) piperidine-2,6-dione], 10.4 nM.
`CC(O)C1CCN(Cc2ccnc(-c3ccc4c(c3)CN(C3CCC(=O)NC3=O)C4=O)c2F)C1` (stereo not shown) [Example 112, 3-(5-(3-fluoro-4-((3-(1-hydroxyethyl)pyrrolidin-1-yl)methyl)pyridin-2-yl)-1-oxoisoindolin-2-yl)piperidine-2,6-dione]: the DC50 was 9.5 nM.
Turning to `CC(O)C1CCN(Cc2ccnc(-c3ccc4c(c3)CN(C3CCC(=O)NC3=O)C4=O)c2F)CC1` (stereo not shown) [Example 113, 3-(5-(3-fluoro-4-((4-(1-hydroxyethyl)piperidin-1-yl)methyl)pyridin-2-yl)-1-oxoisoindolin-2-yl) piperidine-2,6-dione], the DC50 is 13.9 nM.
Under `O=C1CCC(N2Cc3cc(-c4nccc(CN5CC[C@H](O)C5)c4F)ccc3C2=O)C(=O)N1` (stereo partly drawn) [Example 114, 3-(5-(3-fluoro-4-(((S)-3-hydroxypyrrolidin-1-yl)methyl)pyridin-2-yl)-1-oxoisoindolin-2-yl)piperidine-2,6-dione] stands 23.5 nM; under `C[C@@H]1c2c(ccc(-c3cc(CN4CC[C@@H](CO)C4)ccn3)c2F)C(=O)N1[C@H]1CCC(=O)NC1=O` [Example 133, (S)-3-((R)-4-fluoro-5-(4-(((R)-3-(hydroxymethyl)pyrrolidin-1-yl)methyl)pyridin-2-yl)-3-methyl-1-oxoisoindolin-2-yl)piperidine-2,6-dione], 23.1 nM.
